From ChEMBL document CHEMBL1140178, “Design, synthesis, and biological evaluation of novel constrained meta-substituted phenyl propanoic acids as peroxisome proliferator-activated receptor alpha and gamma dual agonists” (J Med Chem, 2008)
The source made the active and inactive calls. The rule behind the calls is not given here.

Experiments:
[1] = molecular target: T1, Peroxisome proliferator-activated receptor gamma (Homo sapiens, UniProt P37231)
T1 sequence (P37231 whole entry): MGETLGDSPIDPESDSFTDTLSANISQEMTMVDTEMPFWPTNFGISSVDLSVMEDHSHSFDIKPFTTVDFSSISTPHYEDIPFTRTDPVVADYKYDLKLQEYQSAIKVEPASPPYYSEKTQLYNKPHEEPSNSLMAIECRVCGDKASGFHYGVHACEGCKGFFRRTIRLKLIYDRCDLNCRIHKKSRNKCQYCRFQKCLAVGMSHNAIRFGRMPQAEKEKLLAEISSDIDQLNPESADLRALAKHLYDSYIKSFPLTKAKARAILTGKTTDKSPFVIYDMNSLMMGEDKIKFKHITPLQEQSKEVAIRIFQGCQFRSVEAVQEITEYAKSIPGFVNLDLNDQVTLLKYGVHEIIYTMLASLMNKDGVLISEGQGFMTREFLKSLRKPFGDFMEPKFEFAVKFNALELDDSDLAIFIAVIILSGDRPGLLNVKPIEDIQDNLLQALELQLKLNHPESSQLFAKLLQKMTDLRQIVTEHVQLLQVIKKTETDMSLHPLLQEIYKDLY
Description: Agonist activity at human PPARgamma ligand binding domain expressed in african green monkey CV1 cells co-transfected with fused Gal4-DBD by transactivation assay

[2] = molecular target: T2, Peroxisome proliferator-activated receptor alpha (Homo sapiens, UniProt Q07869); experiment: (§1) Agonist activity at human PPARalpha ligand binding domain expressed in african green monkey CV1 cells co-transfected with fused Gal4-DBD by transactivation assay; format: cell-based, CV-1
T2 sequence (Q07869 whole entry): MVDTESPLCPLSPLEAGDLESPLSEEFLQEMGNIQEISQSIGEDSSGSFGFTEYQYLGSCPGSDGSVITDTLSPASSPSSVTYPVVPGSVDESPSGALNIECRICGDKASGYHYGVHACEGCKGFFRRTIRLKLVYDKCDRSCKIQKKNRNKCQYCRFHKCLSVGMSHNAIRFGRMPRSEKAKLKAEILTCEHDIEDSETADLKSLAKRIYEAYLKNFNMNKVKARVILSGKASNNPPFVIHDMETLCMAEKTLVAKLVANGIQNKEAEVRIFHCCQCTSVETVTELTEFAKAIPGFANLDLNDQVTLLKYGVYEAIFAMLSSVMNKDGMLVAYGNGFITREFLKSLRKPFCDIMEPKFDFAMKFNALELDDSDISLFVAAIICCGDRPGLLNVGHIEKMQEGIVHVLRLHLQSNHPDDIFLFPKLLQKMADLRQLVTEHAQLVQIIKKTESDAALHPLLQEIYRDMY

[3] = molecular target: T3, Peroxisome proliferator-activated receptor alpha (Homo sapiens) (UniProt Q07869); experiment: Agonist activity at human PPARalpha ligand binding domain expressed in african green monkey CV1 cells co-transfected with fused Gal4-DBD by transactivation assay relative to gemfibrozil; format: cell-based; details: CV-1
T3 sequence (whole entry): T2 sequence (Q07869 whole entry)

CV-1 = experiment: Ratio of EC50 for human PPARalpha ligand binding domain expressed in african green monkey CV1 cells to EC50 for human PPARgamma ligand binding domain expressed in african green monkey CV1 cells; format: cell-based
[4] = molecular target: T3, Peroxisome proliferator-activated receptor alpha (Homo sapiens); experiment: as §1; format: cell-based; details: CV-1
Mus musculus [5] = experiment: Antihyperglycemic effect in db/db mouse assessed as inhibition of blood glucose at 3 mg/kg, po after 5 days; format: functional; details: 120 h
Mus musculus [6] = experiment: Toxicity in db/db mouse assessed as weight gain at 3 mg/kg, po after 7 days; format: organism-based; set-up: dose 3 mg/kg, route oral; details: in vivo, 168 h
Mus musculus [7] = experiment: Antihyperglycemic effect in db/db mouse assessed as inhibition of blood glucose at 3 mg/kg, po after 7 days; format: functional; details: 168 h
Mus musculus [8] = experiment: Antihyperglycemic effect in db/db mouse assessed as inhibition of blood glucose at 0.3 mg/kg, po after 11 days; format: functional; details: 264 h
Mus musculus [9] = experiment: Antihyperglycemic effect in db/db mouse assessed as inhibition of blood glucose at 3 mg/kg, po after 11 days; format: functional; details: 264 h
Mus musculus [10] = experiment: Toxicity in db/db mouse assessed as weight gain at 0.3 mg/kg, po after 7 days; format: organism-based; set-up: dose 0.3 mg/kg, route oral; details: in vivo, 168 h
Mus musculus [11] = experiment: Toxicity in db/db mouse assessed as weight gain at 0.3 mg/kg, po after 11 days; format: organism-based; set-up: dose 0.3 mg/kg, route oral; details: in vivo, 264 h
Mus musculus [12] = experiment: Antihyperglycemic effect in db/db mouse assessed as inhibition of blood glucose at 0.3 mg/kg, po after 5 days; format: functional; details: 120 h
Mus musculus [13] = experiment: Toxicity in db/db mouse assessed as weight gain at 3 mg/kg, po after 11 days; format: organism-based; set-up: dose 3 mg/kg, route oral; details: in vivo, 264 h
Mus musculus [14] = experiment: Antihyperglycemic effect in db/db mouse assessed as inhibition of blood glucose at 0.3 mg/kg, po after 4 days; format: functional; details: 96 h
Mus musculus [15] = experiment: Antihyperglycemic effect in db/db mouse assessed as inhibition of blood glucose at 0.3 mg/kg, po after 7 days; format: functional; details: 168 h
Mus musculus [16] = experiment: Toxicity in db/db mouse assessed as weight gain at 0.3 mg/kg, po after 4 days; format: organism-based; set-up: dose 0.3 mg/kg, route oral; details: in vivo, 96 h
Mus musculus [17] = experiment: Toxicity in db/db mouse assessed as weight gain at 3 mg/kg, po after 4 days; format: organism-based; set-up: dose 3 mg/kg, route oral; details: in vivo, 96 h
Mus musculus [18] = experiment: Antihyperglycemic effect in db/db mouse assessed as inhibition of blood glucose at 3 mg/kg, po after 4 days; format: functional; details: 96 h
Mus musculus [19] = experiment: Antihyperglycemic effect in db/db mouse assessed as inhibition of blood glucose at 20 mg/kg, po after 5 days; format: functional; details: 120 h

Row | Structure (SMILES) | EC50 [1] [µM] | EC50 [2] [µM] | Emax [3] [%] | also measured
1 | CCO[C@@H](Cc1cccc(/C(C)=N/OCc2ccc(Br)cc2)c1)C(=O)O | 0.036 | 2.7 | 150 | –
2 | Cc1ccc(C)c(OCCCC(C)(C)C(=O)O)c1 | – | – | 100 | –
3 | CCO[C@H](Cc1cccc(C2=NOC(Cc3ccccc3)C2)c1)C(=O)O (stereo partly drawn) | 41.4 | – | 6 | Activity [4]: inactive
4 | CCO[C@@H](Cc1cccc(C2=NOC(c3ccc(I)cc3)C2)c1)C(=O)O (stereo partly drawn) | 0.606 | 2.76 | 162 | –
5 | CCO[C@@H](Cc1cccc(/C(C)=N/OCc2ccc(F)cc2)c1)C(=O)O | 0.139 | 5.9 | 299 | inhibition in vivo at 3 mg/kg (Mus musculus [5]): 61%; Activity (Mus musculus [6]): 3.6 g; inhibition in vivo at 3 mg/kg (Mus musculus [7]): 73%; inhibition in vivo at 0.3 mg/kg (Mus musculus [8]): 68%; inhibition in vivo at 3 mg/kg (Mus musculus [9]): 71%; Activity (Mus musculus [10]): 3.6 g; Activity (Mus musculus [11]): 5.6 g; inhibition in vivo at 0.3 mg/kg (Mus musculus [12]): 40.7%; Activity (Mus musculus [13]): 5.6 g; inhibition in vivo at 0.3 mg/kg (Mus musculus [14]): 39%; inhibition in vivo at 0.3 mg/kg (Mus musculus [15]): 58%; Activity (Mus musculus [16]): 1.9 g; Activity (Mus musculus [17]): 2.1 g; inhibition in vivo at 3 mg/kg (Mus musculus [18]): 64%
6 | CCO[C@@H](Cc1cccc(C2=NOC(c3ccc(C(C)(C)C)cc3)C2)c1)C(=O)O (stereo partly drawn) | 2.73 | 3.95 | 138 | –
7 | CCO[C@@H](Cc1cccc(C2=NOC(c3ccccc3)C2)c1)C(=O)O (stereo partly drawn) | 0.22 | 3.99 | 78 | inhibition in vivo at 20 mg/kg (Mus musculus [19]): 27%; Ratio EC50 (CV-1): 18
8 | CCO[C@@H](Cc1cccc(/C(C)=N/OCc2cccc(Cl)c2)c1)C(=O)O | 0.01 | 2.27 | 165 | Ratio EC50 (CV-1): 227
9 | CCO[C@@H](Cc1cccc(/C(C)=N/OCc2ccc(C(F)(F)F)cc2)c1)C(=O)O | 0.046 | 2.95 | 185 | –
10 | CCO[C@@H](Cc1cccc(/C(C)=N/OCc2ccc(O)cc2)c1)C(=O)O | 2.94 | 58.8 | 58 | –
11 | COc1ccc(OC(=O)N(CC(=O)O)Cc2ccc(OCCc3nc(-c4ccccc4)oc3C)cc2)cc1 [MURAGLITAZAR] | – | – | – | Activity (Mus musculus [6]): 3.6 g; inhibition in vivo at 3 mg/kg (Mus musculus [7]): 67%; inhibition in vivo at 3 mg/kg (Mus musculus [9]): 68%; Activity (Mus musculus [13]): 6.3 g; Activity (Mus musculus [17]): 2 g; inhibition in vivo at 3 mg/kg (Mus musculus [18]): 53%
12 | CCO[C@H](Cc1cccc(C2=NOC(c3ccccc3)C2)c1)C(=O)O (stereo partly drawn) | 25.4 | – | – | Activity [4]: inactive; inhibition in vivo at 20 mg/kg (Mus musculus [19]): 3%
13 | CCO[C@H](Cc1cccc(/C(C)=N/OCc2ccccc2)c1)C(=O)O | 1.89 | – | 8 | Activity [4]: inactive; inhibition in vivo at 20 mg/kg (Mus musculus [19]): 22.3%
14 | CCO[C@H](Cc1cccc(C2=NOC(CCc3ccccc3)C2)c1)C(=O)O (stereo partly drawn) | 25.1 | 44.5 | 217 | Ratio EC50 (CV-1): 1.8
15 | CCO[C@@H](Cc1cccc(C2=NOC(CCc3ccccc3)C2)c1)C(=O)O (stereo partly drawn) | 1.85 | 3.08 | 262 | Ratio EC50 (CV-1): 1.7
16 | CCO[C@@H](Cc1ccc(OCCc2ccc(OS(C)(=O)=O)cc2)cc1)C(=O)O | – | – | 94 | –
17 | CCO[C@@H](Cc1cccc(/C(C)=N/OCc2ccccc2)c1)C(=O)O | 0.121 | 2.91 | 71 | –

Continued, in another order:

Row | EC50 [1] [µM] | EC50 [2] [µM] | Emax [3] [%] | Structure (SMILES) | also measured
18 | 37.4 | 30.4 | 48 | CCO[C@H](Cc1cccc(-c2cc(-c3ccccc3)on2)c1)C(=O)O | –
19 | – | – | 56 | CN(CCOc1ccc(CC2SC(=O)NC2=O)cc1)c1ccccn1 (stereo not drawn) | –
20 | 6.93 | 21.6 | 104 | CCO[C@@H](Cc1cccc(C2=NOC(Cc3ccccc3)C2)c1)C(=O)O (stereo partly drawn) | Ratio EC50 (CV-1): 3.1
21 | 0.175 | 4.06 | 179 | CCO[C@@H](Cc1cccc(/C(C)=N/OCc2ccc(OC)cc2)c1)C(=O)O | –
22 | 0.04 | 0.674 | 139 | CCO[C@@H](Cc1cccc(/C(C)=N/OCc2ccc(I)cc2)c1)C(=O)O | –
23 | 0.028 | 7.22 | 386 | CCO[C@@H](Cc1cccc(/C(C)=N/OCc2ccc(Cl)cc2)c1)C(=O)O | inhibition in vivo at 3 mg/kg (Mus musculus [5]): 60.1%; Activity (Mus musculus [6]): 3.7 g; inhibition in vivo at 3 mg/kg (Mus musculus [7]): 73%; inhibition in vivo at 0.3 mg/kg (Mus musculus [8]): 71%; inhibition in vivo at 3 mg/kg (Mus musculus [9]): 76%; Activity (Mus musculus [10]): 3.7 g; Activity (Mus musculus [11]): 6 g; inhibition in vivo at 0.3 mg/kg (Mus musculus [12]): 19.3%; Activity (Mus musculus [13]): 5.3 g; inhibition in vivo at 0.3 mg/kg (Mus musculus [14]): 63%; inhibition in vivo at 0.3 mg/kg (Mus musculus [15]): 60%; Ratio EC50 (CV-1): 260; Activity (Mus musculus [16]): 1.9 g; Activity (Mus musculus [17]): 2.5 g; inhibition in vivo at 3 mg/kg (Mus musculus [18]): 61%
24 | 38.6 | – | 0 | CCO[C@@H](Cc1cccc(C2=NOC(c3ccc(O)cc3)C2)c1)C(=O)O (stereo partly drawn) | –
25 | 0.026 | 3.26 | 143 | CCO[C@@H](Cc1cccc(/C(C)=N/OCc2ccccc2Cl)c1)C(=O)O | Ratio EC50 (CV-1): 126
26 | 28.1 | 37.4 | 107 | CCO[C@@H](Cc1cccc(C2=NOC(c3ccc(OS(C)(=O)=O)cc3)C2)c1)C(=O)O (stereo partly drawn) | –
27 | 3.29 | 5.6 | 162 | CCO[C@@H](Cc1cccc(-c2cc(-c3ccccc3)on2)c1)C(=O)O | –
28 | 0.74 | 4.39 | 144 | CCO[C@@H](Cc1cccc(C2=NOC(c3ccc(Br)cc3)C2)c1)C(=O)O (stereo partly drawn) | –
29 | 1.16 | 24.4 | 119 | CCO[C@@H](Cc1cccc(C2=NOC(c3ccc(F)cc3)C2)c1)C(=O)O (stereo partly drawn) | –
30 | 1.61 | 13.1 | 165 | CCO[C@@H](Cc1cccc(/C(C)=N/OCc2ccc(OS(C)(=O)=O)cc2)c1)C(=O)O | –
31 | 0.816 | 6.78 | 125 | CCO[C@@H](Cc1cccc(C2=NOC(c3ccc(Cl)cc3)C2)c1)C(=O)O (stereo partly drawn) | inhibition in vivo at 3 mg/kg (Mus musculus [5]): 41.7%
32 | 3.19 | 11.3 | 156 | CCO[C@@H](Cc1cccc(C2=NOC(c3ccc(OC)cc3)C2)c1)C(=O)O (stereo partly drawn) | –
33 | 0.279 | 12.1 | 137 | CCO[C@@H](Cc1cccc(/C(C)=N/OCc2ccc(C(C)(C)C)cc2)c1)C(=O)O | –
